How the values were obtained:
Type in all cases: in vivo
[1] = test system: Surinam grass (Brachiaria decumbens); test: Test B postemergence
Outline: (§1)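 Pre: seeded pots sprayed, chemical in non-phytotoxic solvent/surfactant mix. Post: plants 2–18 cm, 1–4 leaf, same formulation. Greenhouse 13–15 d; visual % control vs untreated, 0–100 scale.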

[2] = test system: blackgrass (Alopecurus myosuroides); test: Test B postemergence
Outline: as §1

[3] = test system: crabgrass (Digitaria sanguinalis); test: Test B postemergence
Outline: as §1

[4] = test system: morning glory (Ipomoea hederacea); test: Test B postemergence
Outline: as §1

[5] = test system: velvetleaf (Abutilon theophrasti); test: Test B postemergence
Outline: as §1

[6] = test system: lambsquarters (Chenopodium album); test: Test B postemergence
Outline: as §1

[7] = test system: barnyardgrass (Echinochloa crus-galli); test: Test B postemergence
Outline: as §1

corn (Zea mays) [8] = test: Test B postemergence
Outline: as §1

[9] = test system: pigweed (Amaranthus retroflexus); test: Test B postemergence
Outline: as §1

[10] = test system: giant foxtail (Setaria faberii); test: Test B postemergence
Outline: as §1

[11] = test system: wheat (Triticum aestivum); test: Test B postemergence
Outline: as §1

[12] = test system: cocklebur (Xanthium strumarium); test: Test B postemergence
Outline: as §1

wild oat (Avena fatua) = test: Test B postemergence
Outline: as §1

[13] = test system: Surinam grass (Brachiaria decumbens); test: Test B preemergence
Outline: as §1

[14] = test system: crabgrass (Digitaria sanguinalis); test: Test B preemergence
Outline: as §1

rice (Oryza saliva) [15] = test: Test B preemergence
Outline: as §1

[16] = test system: morning glory (Ipomoea hederacea); test: Test B preemergence
Outline: as §1

[17] = test system: velvetleaf (Abutilon theophrasti); test: Test B preemergence
Outline: as §1

[18] = test system: lambsquarters (Chenopodium album); test: Test B preemergence
Outline: as §1

[19] = test system: barnyardgrass (Echinochloa crus-galli); test: Test B preemergence
Outline: as §1

corn (Zea mays) [20] = test: Test B preemergence
Outline: as §1

[21] = test system: pigweed (Amaranthus retroflexus); test: Test B preemergence
Outline: as §1

[22] = test system: giant foxtail (Setaria faberii); test: Test B preemergence
Outline: as §1

[23] = test system: cocklebur (Xanthium strumarium); test: Test B preemergence
Outline: as §1

[24] = test system: smallflower flatsedge (Cyperus difformis); test: Test C flooded paddy test; settings: for Flatsedge plant response rating: Flooded Paddy, scale 0 to 100, 0 no effect, 100 complete control; for Plant response rating, Flatsedge: flooded paddy test, scale 0 to 100 (0 no effect, 100 complete control)
Outline: (§2)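 Flooded paddy, 2-leaf stage at treatment. Readout: visual % control vs untreated, 0–100, at 12–14 d in greenhouse.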

rice (Oryza saliva) [25] = test: Test C flooded paddy test; settings: for Rice plant response rating: Flooded Paddy, scale 0 to 100, 0 no effect, 100 complete control; for Plant response rating, Rice: flooded paddy test, scale 0 to 100 (0 no effect, 100 complete control)
Outline: as §2

[26] = test system: barnyardgrass (Echinochloa crus-galli); test: Test C flooded paddy test; settings: for Barnyardgrass plant response rating: Flooded Paddy, scale 0 to 100, 0 no effect, 100 complete control; for Plant response rating, Barnyardgrass: flooded paddy test, scale 0 to 100 (0 no effect, 100 complete control)
Outline: as §2

[27] = test system: duck salad (Heteranthera limosa); test: Test C flooded paddy test; settings: for Ducksalad plant response rating: Flooded Paddy, scale 0 to 100, 0 no effect, 100 complete control; for Plant response rating, Ducksalad: flooded paddy test, scale 0 to 100 (0 no effect, 100 complete control)
Outline: as §2

[28] = Rate 125 g/ha, scale 0 to 100, 0 no effect, 100 complete control
[29] = Rate 500 g/ha, scale 0 to 100, 0 is no effect, 100 is complete control, 13 to 15 days
[30] = Preemergence, Rate 500 g/ha, scale 0 to 100, 0 no effect, 100 complete control
[31] = preemergence, Rate 125 g/ha, scale of 0 to 100 where 0 is no effect and 100 is complete control, 13 to 15 days
[32] = Rate 125 g/ha, scale 0 (no effect) to 100 (complete control), 13 to 15 days

Compound: CCCCC(CCCC)c1ccn(C2OCN(c3cccc(C(F)(F)F)c3)C2=O)n1 (centres unmarked) [Compound 114]
- Plant response rating, Surinam grass [1, 28]: 30
- Plant response rating, Surinam grass [1, 29]: 30
- Plant response rating, Blackgrass [2, 28]: 0
- Plant response rating, Blackgrass [2, 29]: 0
- Plant response rating, Crabgrass [3, 28]: 20
- Plant response rating, Crabgrass [3, 29]: 30
- Plant response rating, Morningglory [4, 28]: 30
- Plant response rating, Morningglory [4, 29]: 60
- Plant response rating, Velvetleaf [5, 28]: 0
- Plant response rating, Velvetleaf [5, 29]: 0
- Plant response rating, Lambsquarters [6, 28]: 90
- Plant response rating, Lambsquarters [6, 29]: 100
- Plant response rating, Barnyardgrass [7, 28]: 0
- Plant response rating, Barnyardgrass [7, 29]: 20
- Plant response rating, Corn (corn (Zea mays) [8]; [28]): 0
- Plant response rating, Corn (corn (Zea mays) [8]; [29]): 0
- Plant response rating, Pigweed [9, 28]: 90
- Plant response rating, Pigweed [9, 29]: 100
- Plant response rating, Foxtail, Giant [10, 28]: 0
- Plant response rating, Foxtail, Giant [10, 29]: 0
- Plant response rating, Wheat [11, 28]: 20
- Plant response rating, Wheat [11, 29]: 30
- Plant response rating, Cocklebur [12, 28]: 50
- Plant response rating, Cocklebur [12, 29]: 60
- Plant response rating, Wild Oat (wild oat (Avena fatua); [28]): 30
- Plant response rating, Wild Oat (wild oat (Avena fatua); [29]): 50
- Plant response rating, Surinam grass [13, 30]: 0
- Plant response rating, Surinam grass [13, 31]: 0
- Plant response rating, Crabgrass [14, 30]: 0
- Plant response rating, Crabgrass [14, 31]: 0
- Plant response rating, Rice (rice (Oryza saliva) [15]; [30]): 0
- Plant response rating, Rice (rice (Oryza saliva) [15]; [31]): 0
- Plant response rating, Morningglory [16, 30]: 30
- Plant response rating, Morningglory [16, 31]: 0
- Plant response rating, Velvetleaf [17, 30]: 0
- Plant response rating, Velvetleaf [17, 31]: 0
- Plant response rating, Lambsquarters [18, 30]: 100
- Plant response rating, Lambsquarters [18, 31]: 30
- Plant response rating, Barnyardgrass [19, 30]: 0
- Plant response rating, Barnyardgrass [19, 31]: 0
- Plant response rating, Corn (corn (Zea mays) [20]; [30]): 30
- Plant response rating, Corn (corn (Zea mays) [20]; [31]): 20
- Plant response rating, Pigweed [21, 30]: 100
- Plant response rating, Pigweed [21, 31]: 30
- Plant response rating, Foxtail, Giant [22, 30]: 0
- Plant response rating, Foxtail, Giant [22, 31]: 0
- Plant response rating, Cocklebur [23, 30]: 0
- Plant response rating, Cocklebur [23, 31]: 0
- Flatsedge plant response rating ([24]; Rate 250 g/ha): 0
- Flatsedge plant response rating ([24]; Rate 500 g/ha): 0
- Plant response rating, Flatsedge ([24]; Rate 62 g/ha): 0
- Plant response rating, Flatsedge ([24]; Rate 125 g/ha): 0
- Rice plant response rating (rice (Oryza saliva) [25]; Rate 250 g/ha): 0
- Rice plant response rating (rice (Oryza saliva) [25]; Rate 500 g/ha): 0
- Plant response rating, Rice (rice (Oryza saliva) [25]; Rate 62 g/ha): 0
- Plant response rating, Rice (rice (Oryza saliva) [25]; Rate 125 g/ha): 0
- Barnyardgrass plant response rating ([26]; Rate 250 g/ha): 0
- Barnyardgrass plant response rating ([26]; Rate 500 g/ha): 0
- Plant response rating, Barnyardgrass ([26]; Rate 62 g/ha): 0
- Plant response rating, Barnyardgrass ([26]; Rate 125 g/ha): 0
- Ducksalad plant response rating ([27]; Rate 250 g/ha): 0
- Ducksalad plant response rating ([27]; Rate 500 g/ha): 0
- Plant response rating, Ducksalad ([27]; Rate 62 g/ha): 0
- Plant response rating, Ducksalad ([27]; Rate 125 g/ha): 0

Compound: Cc1ccc(N2CCC(n3ccc(C(C)(C)C)n3)C2=O)cc1OC(C)C (centres unmarked) [Compound 110]
- Plant response rating, Surinam grass [1, 32]: 0
- Plant response rating, Surinam grass [1, 29]: 0
- Plant response rating, Blackgrass [2, 32]: 0
- Plant response rating, Blackgrass [2, 29]: 0
- Plant response rating, Crabgrass [3, 32]: 0
- Plant response rating, Crabgrass [3, 29]: 0
- Plant response rating, Morningglory [4, 29]: 60
- Plant response rating, Velvetleaf [5, 29]: 70
- Plant response rating, Lambsquarters [6, 29]: 90
- Plant response rating, Barnyardgrass [7, 32]: 0
- Plant response rating, Barnyardgrass [7, 29]: 0
- Plant response rating, Corn (corn (Zea mays) [8]; [32]): 0
- Plant response rating, Corn (corn (Zea mays) [8]; [29]): 0
- Plant response rating, Pigweed [9, 29]: 70
- Plant response rating, Foxtail, Giant [10, 32]: 0
- Plant response rating, Foxtail, Giant [10, 29]: 0
- Plant response rating, Wheat [11, 29]: 0
- Plant response rating, Cocklebur [12, 32]: 30
- Plant response rating, Cocklebur [12, 29]: 30
- Plant response rating, Wild Oat (wild oat (Avena fatua); [29]): 0
- Plant response rating, Surinam grass [13, 30]: 40
- Plant response rating, Surinam grass [13, 31]: 0
- Plant response rating, Crabgrass [14, 30]: 100
- Plant response rating, Crabgrass [14, 31]: 100
- Plant response rating, Rice (rice (Oryza saliva) [15]; [30]): 0
- Plant response rating, Rice (rice (Oryza saliva) [15]; [31]): 0
- Plant response rating, Morningglory [16, 30]: 0
- Plant response rating, Morningglory [16, 31]: 0
- Plant response rating, Velvetleaf [17, 30]: 80
- Plant response rating, Velvetleaf [17, 31]: 0
- Plant response rating, Lambsquarters [18, 30]: 100
- Plant response rating, Lambsquarters [18, 31]: 0
- Plant response rating, Barnyardgrass [19, 30]: 0
- Plant response rating, Barnyardgrass [19, 31]: 30
- Plant response rating, Corn (corn (Zea mays) [20]; [30]): 0
- Plant response rating, Corn (corn (Zea mays) [20]; [31]): 0
- Plant response rating, Pigweed [21, 30]: 100
- Plant response rating, Pigweed [21, 31]: 100
- Plant response rating, Foxtail, Giant [22, 30]: 50
- Plant response rating, Foxtail, Giant [22, 31]: 0
- Plant response rating, Cocklebur [23, 30]: 70
- Plant response rating, Cocklebur [23, 31]: 0
- Flatsedge plant response rating ([24]; Rate 250 g/ha): 100
- Flatsedge plant response rating ([24]; Rate 500 g/ha): 100
- Plant response rating, Flatsedge ([24]; Rate 62 g/ha): 50
- Plant response rating, Flatsedge ([24]; Rate 125 g/ha): 50
- Rice plant response rating (rice (Oryza saliva) [25]; Rate 250 g/ha): 70
- Rice plant response rating (rice (Oryza saliva) [25]; Rate 500 g/ha): 80
- Plant response rating, Rice (rice (Oryza saliva) [25]; Rate 62 g/ha): 0
- Plant response rating, Rice (rice (Oryza saliva) [25]; Rate 125 g/ha): 30
- Barnyardgrass plant response rating ([26]; Rate 250 g/ha): 70
- Barnyardgrass plant response rating ([26]; Rate 500 g/ha): 80
- Plant response rating, Barnyardgrass ([26]; Rate 62 g/ha): 0
- Plant response rating, Barnyardgrass ([26]; Rate 125 g/ha): 0
- Ducksalad plant response rating ([27]; Rate 250 g/ha): 70
- Ducksalad plant response rating ([27]; Rate 500 g/ha): 70
- Plant response rating, Ducksalad ([27]; Rate 62 g/ha): 10
- Plant response rating, Ducksalad ([27]; Rate 125 g/ha): 20

— patent US7138361B2, “Herbicidal heterocycles” (E. I. du Pont de Nemours and Company, priority 2000, dated 2006)
